Values after ≈ are worked out from the molar mass of the structure shown.
What was measured:
[1] = test system: E6SM; assay: (§1) Compounds was evaluated for its inhibitory effect on cytopathogenicity of vesicular stomatitis virus (VSV) in E6SM cells; format: functional, Homo sapiens
[2] = test system: E6SM; assay: Minimum inhibitory concentration (MIC) required to reduce McIntyre strain of HSV-1 induced cytopathogenicity by 50% in E6SM cells; format: functional; conditions: Homo sapiens
[3] = test system: E6SM; assay: Minimum inhibitory concentration (MIC) required to reduce 196 strain of HSV-2 induced cytopathogenicity by 50% in E6SM cells; format: functional; conditions: Homo sapiens
[4] = test system: E6SM; assay: Minimum inhibitory concentration (MIC) required to reduce F strain of HSV-1 induced cytopathogenicity by 50% in E6SM cells; format: functional; conditions: Homo sapiens
[5] = test system: E6SM; assay: Minimum inhibitory concentration (MIC) required to reduce G strain of HSV-2 induced cytopathogenicity by 50% in E6SM cells; format: functional; conditions: Homo sapiens
[6] = test system: E6SM; assay: Minimum cytotoxic concentration (MCC) required to cause a microscopically detectable alteration of normal cell morphology against E6SM cells; format: functional; conditions: Homo sapiens
[7] = test system: E6SM; assay: (§2) Compounds was evaluated for its inhibitory effect on cytopathogenicity of vaccinia virus (VV) in E6SM cells; format: functional, Homo sapiens
[8] = test system: E6SM; assay: Minimum inhibitory concentration (MIC) required to reduce KOS strain of HSV-1 induced cytopathogenicity by 50% in E6SM cells; format: functional; conditions: Homo sapiens
[9] = test system: E6SM; assay: Minimum inhibitory concentration (MIC) required to reduce B2006 strain of TK-HSV-1 induced cytopathogenicity by 50% in E6SM cells; format: functional; conditions: Homo sapiens
[10] = test system: E6SM; assay: Minimum inhibitory concentration (MIC) required to reduce VMW 1837 strain of TK-HSV-1 induced cytopathogenicity by 50% in E6SM cells; format: functional; conditions: Homo sapiens
[11] = test system: E6SM; assay: Minimum inhibitory concentration (MIC) required to reduce Lyons strain of HSV-2 induced cytopathogenicity by 50% in E6SM cells; format: functional; conditions: Homo sapiens
[12] = test system: E6SM; assay: as §2; format: functional; conditions: Homo sapiens
[13] = test system: E6SM; assay: as §1; format: functional; conditions: Homo sapiens

Structure (SMILES)	VSV [1]	MIC [2]	MIC [3]	MIC [4]	MIC [5]	MCC [6]	VV [7]	MIC [8]	MIC [9]	MIC [10]	MIC [11]	MIC [12]	MIC [13]
Nc1nc2c(ncn2COCCO)c(=O)[nH]1 [ACYCLOVIR]	>400	0.02 µg/mL (≈ 0.0888 µM)	0.015 µg/mL (≈ 0.0666 µM)	0.04 µg/mL (≈ 0.178 µM)	0.04 µg/mL (≈ 0.178 µM)	> 400 µg/mL	>400	0.07 µg/mL (≈ 0.311 µM)	70 µg/mL (≈ 311 µM)	10 µg/mL (≈ 44.4 µM)	0.02 µg/mL (≈ 0.0888 µM)		
Nc1nc(O)c2ncn(CC[C@H](O)CCO)c2n1		0.6 µg/mL (≈ 2.37 µM)	20 µg/mL (≈ 79 µM)	0.4 µg/mL (≈ 1.58 µM)	4 µg/mL (≈ 15.8 µM)	> 400 µg/mL		0.4 µg/mL (≈ 1.58 µM)	> 400 µg/mL	> 400 µg/mL	5 µg/mL (≈ 19.7 µM)	> 400 µg/mL	> 400 µg/mL
Nc1ncnc2c1ncn2C[C@H](O)CO [(S)-DHPA]		70 µg/mL (≈ 335 µM)	300 µg/mL (≈ 1430 µM)	70 µg/mL (≈ 335 µM)	300 µg/mL (≈ 1430 µM)	> 400 µg/mL		300 µg/mL (≈ 1430 µM)	300 µg/mL (≈ 1430 µM)	> 400 µg/mL	250 µg/mL (≈ 1190 µM)	70 µg/mL (≈ 335 µM)	70 µg/mL (≈ 335 µM)
